# According to patent publication US6835752B2, “Carboxylic acid derivatives, processes for the preparation thereof and pharmaceutical agents comprising the same as active ingredient” (Ono Pharmaceutical Co., Ltd., priority 2000, dated 2004):
# Experiments:
# Conditions in all cases: CHO cell membrane fraction, competition with [3H]-PGE2 2.5 nM
# mouse EP3α receptor = target: T1, mouse EP3α receptor (Mus musculus, UniProt P30557); test: Binding assay using cell expressing the prostanoid receptor subtypes (EP3)
# T1 construct: expressed in transfected cells; host or cells: CHO cells
# T1 sequence (P30557 1-365): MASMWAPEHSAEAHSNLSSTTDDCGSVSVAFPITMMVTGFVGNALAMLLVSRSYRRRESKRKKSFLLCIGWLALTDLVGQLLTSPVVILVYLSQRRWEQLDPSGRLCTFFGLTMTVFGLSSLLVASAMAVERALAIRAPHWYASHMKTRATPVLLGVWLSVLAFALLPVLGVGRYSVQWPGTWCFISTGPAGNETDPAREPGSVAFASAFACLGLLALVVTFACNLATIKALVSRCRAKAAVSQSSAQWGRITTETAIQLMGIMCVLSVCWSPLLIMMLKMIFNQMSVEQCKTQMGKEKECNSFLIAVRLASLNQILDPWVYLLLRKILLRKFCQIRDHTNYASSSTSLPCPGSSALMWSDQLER
# Method: (§1) (i) Binding Assay Using Cell Expressing the Prostanoid Receptor Subtypes
# (§2) The preparation of membrane fraction was carried out according to the method of Sugimoto et al [J. Biol. Chemical, 267, 6463-6466 (1992)], using CHO cell expressing prostanoid receptor subtypes (mouse EP1, EP2, EP3α, and EP4).
# (§3) The standard assay mixture containing membrane fraction (50 μL), [^3H]—PGE2 in a final volume of 150 μL was incubated for 1 hour at room temperature. The reaction was terminated by addition of 3 mL of ice-cold buffer. The mixture was rapidly filtered through a glass filter (GF/B) under reduced pressure. The radioactivities associated with the filters were measured by liquid scintillation counter.
# (§4) Kd and Bmax values were determined from Scatchard plots [Ann. N. Y. Acad. Sci. 51, 660(1949)]. Non-specific binding was determined as the amount bound in the presence of an excess (2.5 μM of unlabeled PGE2. In the experiment for competition of specific [^3H]—PGE2 binding assay, [^3H]—PGE2, was added at a concentration of 2.5 nM and a test compound of the present invention was added at various concentrations. The following buffer was used in all reactions.
# (§5) Buffer: 10 mM potassium phosphate (pH 6.0), 1 mM EDTA, 10 mM MgCl2, 0.1 M NaCl.
# (§6) The inhibition constant (Ki) (μM) of each compound was calculated by the following equation.
# mouse EP4 receptor = target: T2, mouse EP4 receptor (Mus musculus, UniProt P32240); test: Binding assay using cell expressing the prostanoid receptor subtypes (EP4)
# T2 construct: expressed in transfected cells; host or cells: CHO cells
# T2 sequence (P32240 whole entry): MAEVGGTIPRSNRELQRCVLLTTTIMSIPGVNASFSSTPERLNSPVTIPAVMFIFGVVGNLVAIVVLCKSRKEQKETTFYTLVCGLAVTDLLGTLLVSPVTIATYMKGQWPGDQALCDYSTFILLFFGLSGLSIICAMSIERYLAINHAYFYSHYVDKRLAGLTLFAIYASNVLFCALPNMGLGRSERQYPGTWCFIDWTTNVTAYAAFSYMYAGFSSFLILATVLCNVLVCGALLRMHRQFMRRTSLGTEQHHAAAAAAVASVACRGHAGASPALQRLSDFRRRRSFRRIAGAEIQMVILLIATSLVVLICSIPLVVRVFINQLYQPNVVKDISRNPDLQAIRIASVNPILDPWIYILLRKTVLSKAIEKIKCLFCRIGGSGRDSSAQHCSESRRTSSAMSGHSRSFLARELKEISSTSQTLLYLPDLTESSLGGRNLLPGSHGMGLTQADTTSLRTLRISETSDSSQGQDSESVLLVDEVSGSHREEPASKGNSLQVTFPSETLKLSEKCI
# Method: as §1, §2, §3, §4, §5, §6
# mouse EP1 receptor = target: T3, mouse EP1 receptor (Mus musculus, UniProt P35375); test: Binding assay using cell expressing the prostanoid receptor subtypes (EP1)
# T3 construct: expressed in transfected cells; host or cells: CHO cells
# T3 sequence (P35375 1-405): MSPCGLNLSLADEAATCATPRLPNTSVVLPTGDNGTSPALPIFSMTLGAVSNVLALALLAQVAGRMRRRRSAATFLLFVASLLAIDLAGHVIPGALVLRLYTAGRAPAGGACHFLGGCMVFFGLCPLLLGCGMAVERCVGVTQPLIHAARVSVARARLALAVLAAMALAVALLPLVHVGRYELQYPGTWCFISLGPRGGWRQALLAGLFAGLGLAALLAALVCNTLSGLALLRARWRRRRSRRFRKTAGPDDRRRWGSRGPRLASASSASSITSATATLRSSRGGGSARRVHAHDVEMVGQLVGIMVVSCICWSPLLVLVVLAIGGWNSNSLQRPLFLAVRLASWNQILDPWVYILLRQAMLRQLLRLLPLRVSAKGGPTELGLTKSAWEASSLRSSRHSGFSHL
# Method: as §1, §2, §3, §4, §5, §6
# mouse EP2 receptor = target: T4, mouse EP2 receptor (Mus musculus, UniProt Q62053); test: Binding assay using cell expressing the prostanoid receptor subtypes (EP2)
# T4 construct: expressed in transfected cells; host or cells: CHO cells
# T4 sequence (Q62053 whole entry): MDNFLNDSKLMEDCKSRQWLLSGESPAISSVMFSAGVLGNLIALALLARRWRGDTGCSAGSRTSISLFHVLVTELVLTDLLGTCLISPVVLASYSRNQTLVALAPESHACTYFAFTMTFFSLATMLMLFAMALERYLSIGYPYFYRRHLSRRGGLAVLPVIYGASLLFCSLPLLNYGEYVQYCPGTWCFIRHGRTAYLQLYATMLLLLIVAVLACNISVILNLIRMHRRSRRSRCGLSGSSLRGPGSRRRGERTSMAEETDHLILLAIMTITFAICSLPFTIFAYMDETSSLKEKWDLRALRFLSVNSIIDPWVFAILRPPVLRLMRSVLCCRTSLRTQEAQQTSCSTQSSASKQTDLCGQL
# Method: as §1, §2, §3, §4, §5, §6
smiles,measurement,setting,value
"CC(C(=O)Nc1ccccc1CCCC(=O)O)c1cccc2ccccc12 (stereo not shown) [Example 2, 4-[2-[2-(1-naphthyl)propanoylamino]phenyl]butanoic acid]",Ki,mouse EP3α receptor,2.4 µM
same,Ki,mouse EP4 receptor,0.3 µM
same,Ki,mouse EP1 receptor,> 10 µM
same,Ki,mouse EP2 receptor,> 10 µM
